US20250186461A1, “METHODS AND COMPOSITIONS FOR TREATING AND/OR PREVENTING HERNIAS” (Northwestern University, priority 2023, published 2025)

Assays:
WT mice = experiment: E2/P4-induced hernia formation in WT mice; type: in vivo, mouse; conditions: WT male mice, concurrent treatment with P4+E2
Source text: All placebo-treated Arom^hum mice developed hernias starting from 5 weeks of age. None of the WT littermates developed hernias. […] The mouse scrotum is connected to the peritoneal cavity with a narrow funicular (or inguinal) canal, with walls composed of LAM tissue. Structurally normal LAM tissue is essential to maintain the tone of this canal and prevent herniation of the bowel.
Experiment 1a1: Does the addition of P4 to E2 treatment accelerate LAM fibrosis and hernia formation in WT mice? It was shown that treatment of male WT mice with extremely high doses of systemic estrogens starting around or after the onset of puberty caused inguinal hernia in one third to half of these animals^23-25. We hypothesize that this effect is primarily mediated by the E2 induction of PGR expression in LAM fibroblasts. Male mice have readily detectable P4 levels in the circulation and LAM tissue to activate PGR in LAM fibroblasts (FIG. 6). If this were true, the addition of pharmacologic quantities of P4 (75 mg/pellet for 12-week release)^73 to E2 (0.3 mg/pellet for 12-week release)^23-25 in WT mice should accelerate this phenotype. Our ongoing preliminary study, whereby a 6-week treatment with P4+E2 induced large inguinal hernia in all WT mice (FIG. 7A), supports the following experiment. Long-term (8 weeks or longer) treatment with E2 only is anticipated to cause hernias in up to half of WT mice based on previous findings^23-25. We will determine whether P4+E2 treatment over 12 weeks will give rise to larger hernias in a higher number of mice compared with E2-only treatment. […] See Statistical Methods above for sample size calculation. Hernia surface area will be measured using a digital caliper and calculated as previously described (length×width)^19. At the designated endpoints, LAM and UAM (control) from each mouse will be resected, with one-half of the tissue snap-frozen in liquid nitrogen, and the other half fixed in 4% phosphate-buffered paraformaldehyde for histological and IHC analyses (see below). […]

[1] = target: T1, glucocorticoid receptor (GR) (Homo sapiens, UniProt P04150); conditions: cited from earlier work
T1 sequence (P04150 1-777): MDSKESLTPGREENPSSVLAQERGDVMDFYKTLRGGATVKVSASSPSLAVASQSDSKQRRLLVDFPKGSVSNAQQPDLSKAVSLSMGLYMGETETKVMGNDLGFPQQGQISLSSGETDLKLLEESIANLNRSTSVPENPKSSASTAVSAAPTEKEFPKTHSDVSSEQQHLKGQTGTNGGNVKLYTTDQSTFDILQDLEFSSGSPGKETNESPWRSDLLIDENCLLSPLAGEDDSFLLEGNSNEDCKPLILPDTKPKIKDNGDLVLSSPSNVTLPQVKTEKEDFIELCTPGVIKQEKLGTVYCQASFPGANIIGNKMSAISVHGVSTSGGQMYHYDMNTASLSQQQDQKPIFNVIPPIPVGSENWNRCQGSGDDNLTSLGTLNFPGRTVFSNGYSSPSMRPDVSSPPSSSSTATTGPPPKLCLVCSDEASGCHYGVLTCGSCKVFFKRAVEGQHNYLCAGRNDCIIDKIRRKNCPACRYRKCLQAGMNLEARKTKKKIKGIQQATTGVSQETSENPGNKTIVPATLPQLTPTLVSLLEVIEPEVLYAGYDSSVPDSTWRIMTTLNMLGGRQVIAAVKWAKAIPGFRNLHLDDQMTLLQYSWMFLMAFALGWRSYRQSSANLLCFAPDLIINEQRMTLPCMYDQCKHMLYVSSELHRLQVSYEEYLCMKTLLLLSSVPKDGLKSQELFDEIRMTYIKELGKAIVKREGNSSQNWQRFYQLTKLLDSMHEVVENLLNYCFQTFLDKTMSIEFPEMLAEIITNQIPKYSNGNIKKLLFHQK

PGR = target: T2, PGR (Homo sapiens, UniProt P06401); conditions: cited from earlier work
T2 sequence (P06401 1-933): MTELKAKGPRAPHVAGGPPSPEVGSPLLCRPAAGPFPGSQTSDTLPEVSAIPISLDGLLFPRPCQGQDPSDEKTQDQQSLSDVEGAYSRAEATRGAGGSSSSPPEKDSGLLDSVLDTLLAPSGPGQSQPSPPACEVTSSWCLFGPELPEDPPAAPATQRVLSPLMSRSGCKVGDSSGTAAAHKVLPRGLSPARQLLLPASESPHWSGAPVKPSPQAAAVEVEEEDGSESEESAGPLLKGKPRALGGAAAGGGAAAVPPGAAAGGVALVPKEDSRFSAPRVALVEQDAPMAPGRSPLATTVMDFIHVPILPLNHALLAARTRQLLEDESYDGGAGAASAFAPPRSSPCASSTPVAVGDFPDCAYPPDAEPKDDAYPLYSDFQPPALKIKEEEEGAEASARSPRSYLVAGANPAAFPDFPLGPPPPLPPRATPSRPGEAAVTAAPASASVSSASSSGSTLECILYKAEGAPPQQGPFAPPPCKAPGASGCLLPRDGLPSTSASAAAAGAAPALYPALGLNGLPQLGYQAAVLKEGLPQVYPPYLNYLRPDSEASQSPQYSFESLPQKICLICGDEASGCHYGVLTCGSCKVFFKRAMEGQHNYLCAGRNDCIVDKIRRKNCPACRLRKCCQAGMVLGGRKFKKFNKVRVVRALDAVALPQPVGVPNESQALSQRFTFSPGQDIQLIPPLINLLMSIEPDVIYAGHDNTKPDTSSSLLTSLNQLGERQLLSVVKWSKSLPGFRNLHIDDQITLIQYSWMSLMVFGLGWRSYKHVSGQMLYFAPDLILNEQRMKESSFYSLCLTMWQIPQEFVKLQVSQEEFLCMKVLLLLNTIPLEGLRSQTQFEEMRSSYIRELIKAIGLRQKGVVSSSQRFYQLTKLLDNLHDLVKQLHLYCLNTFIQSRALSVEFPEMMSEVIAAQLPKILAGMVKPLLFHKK

| SMILES | prevention of P4+E2-induced large hernias (WT mice) | anti-glucocorticoid activity [1] | P4/PGR antagonism and PGR selectivity (PGR) |
| --- | --- | --- | --- |
| CC#C[C@]1(O)CC[C@H]2[C@@H]3CCC4=CC(=O)CCC4=C3[C@@H](c3ccc(N(C)C)cc3)C[C@@]21C [RU486, Mifepristone] | completely prevented | has anti-glucocorticoid effects | – |
| CC(=O)O[C@]1(C(C)=O)CC[C@H]2[C@@H]3CCC4=CC(=O)CCC4=C3[C@@H](c3ccc(N(C)C)cc3)C[C@@]21C [UPA, Ulipristal acetate] | – | extremely low anti-glucocorticoid activity | very high PGR selectivity |
